Results from ChEMBL document CHEMBL2321670, “Near native binding of a fluorescent serotonin conjugate to serotonin type 3 receptors” (Bioorg Med Chem Lett, 2013).
Active and inactive are the calls of the source. The rule behind the calls is not given here.

What was measured:
Type in all cases: cell-based
[1] = molecular target: T1, 5-hydroxytryptamine receptor 3A (Homo sapiens, UniProt P46098); assay: Binding affinity to C-terminal-His6-tagged 5HT3A receptor (unknown origin) expressed in HEK293 cells after 2 hrs by fluorimetric analysis
T1 sequence (P46098 whole entry): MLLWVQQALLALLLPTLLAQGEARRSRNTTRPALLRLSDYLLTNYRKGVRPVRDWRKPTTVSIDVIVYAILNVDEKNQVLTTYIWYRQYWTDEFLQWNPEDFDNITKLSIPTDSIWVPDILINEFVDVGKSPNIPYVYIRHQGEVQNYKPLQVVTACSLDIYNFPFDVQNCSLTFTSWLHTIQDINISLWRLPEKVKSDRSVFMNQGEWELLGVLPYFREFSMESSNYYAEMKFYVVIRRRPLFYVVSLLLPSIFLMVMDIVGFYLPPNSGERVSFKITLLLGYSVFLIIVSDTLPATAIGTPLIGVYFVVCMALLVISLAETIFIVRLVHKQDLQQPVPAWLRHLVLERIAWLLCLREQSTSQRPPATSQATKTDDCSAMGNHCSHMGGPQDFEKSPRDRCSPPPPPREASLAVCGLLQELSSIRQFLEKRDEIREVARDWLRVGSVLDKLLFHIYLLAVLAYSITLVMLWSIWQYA

[2] = molecular target: T2, 5-hydroxytryptamine receptor 3A (Homo sapiens) (UniProt P46098); assay: Binding affinity to C-terminal-His6-tagged 5HT3A receptor (unknown origin) expressed in HEK293 cells assessed as decrease in fluorescence at 10 to 500 nM after 2 hrs by fluorimetric analysis in presence of granisetron
T2 sequence (whole entry): T1 sequence (P46098 whole entry)

[3] = molecular target: T2, 5-hydroxytryptamine receptor 3A (Homo sapiens); assay: Binding affinity to C-terminal-His6-tagged 5HT3A receptor (unknown origin) expressed in HEK293 cells assessed as decrease in fluorescence at 10 to 500 nM after 2 hrs by fluorimetric analysis

SMILES: CN(C)c1ccc2c(-c3ccc(C(=O)NCCCCCNC(=O)CCn4cc(CCN)c5cc(O)ccc54)cc3C(=O)[O-])c3ccc(=[N+](C)C)cc-3oc2c1
- Kd [1]: 83 nM
- Activity [2]: inactive
- Activity [3]: Active
